According to patent publication US8323659B2, “Method for diagnosing and/or treating tumor” (Keio University, priority 2008, dated 2012):

Key:
[1] = tested on: CD8+ cells of genetically modified mice expressing HLA-A24 (A24-Tg); experiment: Gamma interferon production by CD8+ cells of peptide-immunized HLA-A24 transgenic mice; format: cell-based, mouse; conditions: for gamma interferon producing activity at lower concentrations: peptide below 2 μg/mL, normalized to 10 μg/mL as 100%
Procedure: First, dendritic cell precursors were isolated from bone marrow cells of A24-Tg mice using LineagePanel Streptavidin Plus Magnetic Particles-DM (BD Biosciences Inc.) and cultured for 6 days in the presence of GM-CSF (10 ng/mL, Peprotech Inc.) to induce their differentiation. The dendritic cells thus obtained were cultured for 6 hours in the presence of each of the peptides having the sequences shown below (10 μg/mL, synthesized by Invitrogen Inc.), and then injected subcutaneously to genetically modified mice expressing HLA-A24 at 5×10^6 cells per mouse for immunization. In addition, SAGE which has been identified as a testicular tumor antigen and for which a HLA-A24-restricted peptide has been established, was used for a positive control experiment (Cancer Research 60:3848-3855, 2000), and dendritic cells not stimulated by a peptide were used as the negative control.
Spleen cells were collected from the mice one week after the immunization with each of the peptides, and were cultured under the stimulation by 10 μg/mL of the same peptide as used for immunization for 6 days, from which CD8+ cells were isolated by the MACS method using antibody-coupled magnetic beads from Miltenyi Inc . In order to produce cytokine at a higher level, the CD8+ cells (1×10^6) were further stimulated for 24 hours by 0.08 to 10 μg/mL of the same peptide in the presence of APC (1×10^7 cells) that was obtained by collecting the spleen cells freshly from a HLA-A24 expressing-genetically modified mouse and then inactivating the cells with mitomycin C. Amounts of gamma interferon contained in the culture supernatants were measured by Cytometric Bead Array kit for mouse (BD Biosciences Inc.).

[2] = tested on: CD8+ cells from PBMC of healthy individuals positive for HLA-A24; experiment: Gamma interferon production by peptide-induced human CD8+ cells; format: cell-based; conditions: IL-2 and APC; for gamma interferon production capability: FIG. 5D
Procedure: (§1) First, blood was collected from two healthy individuals positive for HLA-A24, to which 1/10 volume of 4% sodium citrate was added, and was overlaid on Ficoll-Paque (Amersham Inc.) and centrifuged (1500 rpm, 20 min, room temperature). The fraction of monocytes (PBMC) separated in the interface was cultured for 6 days under the stimulation with 10 μg/mL of each peptide, from which CD8+ cells were isolated by the MACS method using antibody-coupled magnetic beads (Miltenyi Inc). In order to estimate cytotoxic activity of the isolated CD8+ cells, they were cocultured with human colon cancer cell line COLO320 (HLA-A24^+ SAGE^+ HERV-H ^+ Env^+) as the target cell at a mixing ratio of [CD8+ cell:COLO320 tumor cell=50:1] for 6 hours. The killed tumor cells were detected using Immunocyto Cytotoxity Detection Kit (MBL inc.), and tumor-specific toxicity rates were calculated according to the protocol attached to the kit. Results are plotted in the graph of FIG. 5A.
In order to evaluate the gamma interferon production capability, 1×10^6 of CD8+ cells were stimulated by 1 or 10 μg/mL of each peptide for 24 hours in the presence of IL-2 (100 U/mL, Peprotech Inc.) and APC (5×10^6 cells) which was obtained by collecting the PBMCs freshly from a healthy individual and then inactivating them with mitomycin C. Amounts of gamma interferon contained in the culture supernatants were measured by Cytometric Bead Array kit for human (BD Biosciences Inc.). Results are plotted in the graph of FIG. 5B.
The gamma interferon production capability was evaluated by stimulating CD8+ cells with 0.1, 1 or 10 μg/mL of each peptide in the presence of IL-2 and APC. The results are plotted in the graph of FIG. 5D.

[3] = tested on: PKH67-labeled CD8+ cells in SCID mice; experiment: In vivo proliferation of peptide-induced CD8+ cells in immunodeficiency mice; parameters: species or system mouse; conditions: FIG. 8; for content of CD8+ cells in vivo: SCID mice, peptide 100 μg per animal via tail vein, 5 days, spleen and peripheral blood, versus no peptide administered
Procedure: In the same method as described in Example 4, CD8+ cells were obtained by culturing PBMCs with the stimulation of HERV-H#1 (final concentration 10 μg/mL). The CD8+ cells for a control group were obtained by culturing under the stimulation by NY-ESO-1 peptide (SEQ ID NO: 23) in place of HERV-H#1 at the same concentration. The CD8+ cells thus obtained were fluorescence-labeled by mixing with a fluorescent dye PKH67 (Sigma Corp.) and incubating for 10 min.
The PKH67-labeled CD8+ cells (2×10^6 cells), PBMCs (2×10^7 cells) collected from the same healthy individual, and a peptide (HERV-H Env or NY-ESO-1 (control groups) at 100 μg per animal) were injected via the tail vein of immunodeficiency mice (the SCID mice, CLEA Japan Inc.). Spleen cells and peripheral blood cells were collected from the mice on 5 days after the administration, and the content of PKH67-labeled CD8+ cells was measured by flow cytometry (BD Inc.). Mice treated similarly except that no peptide was administered were used for a control experiment.

[4] = tested on: human pancreatic tumor cell line Panc-1; experiment: Toxicity of peptide-induced CD8+ cells (HLA-A02 positive PBMC) against Panc-1; format: cell-based; conditions: two HLA-A02 positive healthy individuals; FIG. 5E
[5] = tested on: human colon cancer cell line COLO320; experiment: Toxicity of peptide-induced CD8+ cells (HLA-A24 positive PBMC) against COLO320; format: cell-based
Procedure: as §1
The toxicity against tumor cells was evaluated by setting the ratio of CD8+ cells:COLO320 tumor cells to 6.25:1, 12.5:1, 25:1 or 50:1. The results are plotted in the graph of FIG. 5C.

[6] = tested on: Clone F3 (Panc-1 cells in which the snail gene was forcibly expressed); experiment: Cell growth of Clone F3 after siRNA transfection; format: cell-based, human; conditions: F3 cells cultured 2 to 3 days after siRNA transfection; in contrast to untreated cells and control siRNA; FIG. 3A
Procedure: First, snail cDNA (CDS 71-865, 795 bp) was amplified by PCR using the Panc-1 cells that had been stimulated with TGF-beta known as an EMT-inducing agent, and was inserted into the EcoR I-Xho I restriction sites of pcDNA3.1 (+) plasmid vector (Invitrogen Inc.) having a G418 resistance gene. The vector was introduced into the tumor cell lines by electroporation. The cells were cultured for 2 weeks and then drug-resistant cells were selected with G418 (2 mg/mL) and cloned.
In this example, the expression of HERV-H env gene was suppressed in Clone F3 and cell invasion capability and growth rate were measured.
(§2) First, 5×10^4 of F3 cells, as well as F3 cells (#1 to #4, Invitrogen Inc.) that had been cultured for 2 to 3 days after transfected with each of the 4 kinds of HERV-H env gene specific-siRNAs (shown below) by PEI complex method (Polyplus Inc.), were counted. The numbers of cells as plotted in the graph of FIG. 3A were taken as a standard of the growth rates.
(§3) For control experiments, F3 cells (Control) transfected with a control oligonucleotide from Invitrogen, F3 cells (siRNA-snail) transfected with snail gene specific-siRNA (SiRNA-snail #1) (shown below) and a Panc-1 cell line (Parent) were used.

[7] = tested on: Clone F3 (Panc-1 cells in which the snail gene was forcibly expressed); experiment: Cell invasion capability of Clone F3 (matrigel Invasion Chamber); format: cell-based, human; conditions: F3 cells transfected with siRNA; matrigel-coated membrane, 4 hours; FIG. 3B
From the text: as §2
Then, the recovered cells were placed on the upper surface of the Invasion Chamber (pore size 8 μm, BD Bioscience Inc.) whose membrane was coated with matrigel, and cultured for 4 hours (37° C., 5% CO2). After cells remaining on the upper surface of the membrane were removed completely, the cells invaded into the lower surface of the membrane were fixed and stained with Crystal Violet solution and counted under a microscope to evaluate the cell invasion capability.
as §3

[8] = lower peptide concentration (0.1 μg/mL)
[9] = peptide concentrations equal to or higher than 1 μg/mL

FYSLLLYSL (listed as Homo sapiens) [HERV-H#2]
amounts of gamma interferon produced (comparison among the HERV-H Env peptides) ([1]; peptide 0.08 to 10 μg/mL, FIG. 4B): highest activity | gamma interferon producing activity at lower concentrations ([1]; FIG. 4B): significantly reduced

LLMWITQCF (listed as Homo sapiens) [NY-ESO-1, HLA-A24-restricted tumor antigen peptide clinically used in peptide vaccine treatments, reference compound]
gamma interferon production capability [2, 8]: significantly reduced | gamma interferon production capability [2, 9]: best production | content of CD8+ cells in vivo [3]: higher content of CD8+ cells

NYAEPPWPL (listed as Homo sapiens) [HERV-H#3]
gamma interferon producing activity at lower concentrations ([1]; FIG. 4B): significantly reduced

SYLHHTINL (listed as Homo sapiens) [HERV-H#1]
gamma interferon production capability [2, 8]: still sufficient to induce gamma interferon production | gamma interferon production ([2]; peptide 10 μg/mL, 24 hours, FIG. 5B): significantly higher production than the other peptides | gamma interferon production capability [2, 9]: second best after NY-ESO-1 | content of CD8+ cells in vivo [3]: higher content of CD8+ cells | self-proliferation of the induced CD8+ cells ([3]; no peptide administered to the mice, versus CD8+ cells induced by NY-ESO-1 peptide): less active | proliferation activity of the induced CD8+ cells ([3]; peptides administered to the mice, versus CD8+ cells induced by NY-ESO-1 peptide): higher than that of the CD8+ cells induced by NY-ESO-1 peptide | TCR-binding affinity ([1]; inferred from the concentration dependence of gamma interferon production, P<0.001, t-test): significantly higher than the other peptides | gamma interferon producing activity at lower concentrations ([1]; FIG. 4B): maintained | toxicity against tumor cells (killed Panc-1) [4]: highest toxicity | toxicity against tumor cells (COLO320) ([5]; E:T ratio equal to or more than 25:1, FIG. 5C): highest toxicity | toxicity against tumor cells (killed COLO320) ([5]; two HLA-A24 positive healthy individuals, CD8+ cell:COLO320 = 50:1, 6 hours, FIG. 5A): highest

siRNA-snail: snail gene specific-siRNA; sense GCGAGCUGCAGGACUCUAAdTdT (SEQ ID NO: 18), antisense SEQ ID NO: 19 (sense GCGAGCUGCAGGACUCUAATT; antisense UUAGAGUCCUGCAGCUCGCTT; dTdT overhangs, further chemistry not given here)
cell growth (numbers of cells) [6]: strongly suppressed | cell invasion capability [7]: significantly reduced
